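Tested at 5 concentrations; 48 h exposure; 96-well plates; endpoints linearly interpolated, else capped at highest concentration. Abbreviation: GI50, concentration required for 50% inhibition of growth. TGI: total growth inhibition.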
Assays:
Experiment in all cases: DTP human tumour cell line panel, 48 h
786-0 renal = test system: 786-0 renal
A498 renal = test system: A498 renal
A549 NSCLC = test system: A549 NSCLC
ACHN renal = test system: ACHN renal
BT-549 breast = test system: BT-549 breast
CAKI-1 renal = test system: CAKI-1 renal
CCRF-CEM leukemia = test system: CCRF-CEM leukemia
COLO 205 colon = test system: COLO 205 colon
DU-145 prostate = test system: DU-145 prostate
EKVX NSCLC = test system: EKVX NSCLC
HCC-2998 colon = test system: HCC-2998 colon
HCT-116 colon = test system: HCT-116 colon
HCT-15 colon = test system: HCT-15 colon
HL-60(TB) leukemia = test system: HL-60(TB) leukemia
HOP-62 NSCLC = test system: HOP-62 NSCLC
HOP-92 NSCLC = test system: HOP-92 NSCLC
HS 578T breast = test system: HS 578T breast
HT29 colon = test system: HT29 colon
IGROV1 ovarian = test system: IGROV1 ovarian
K-562 leukemia = test system: K-562 leukemia
KM12 colon = test system: KM12 colon
LOX IMVI melanoma = test system: LOX IMVI melanoma
M14 melanoma = test system: M14 melanoma
MALME-3M melanoma = test system: MALME-3M melanoma
MCF7 breast = test system: MCF7 breast
MDA-MB-231 breast = test system: MDA-MB-231 breast
MDA-MB-435 = test system: MDA-MB-435
MOLT-4 leukemia = test system: MOLT-4 leukemia
NCI-H226 lung = test system: NCI-H226 lung

Question: How did the GI50 (786-0 renal) turn out when CN1CCN(c2ccc(Nc3nc(NCCNS(=O)(=O)c4ccc5ccccc5c4)c4sccc4n3)cc2)CC1 was run?
Answer: 2.69 µM

Question: And the TGI (786-0 renal)?
Answer: 8.16 µM

Question: What about the GI50 (A498 renal) of the same molecule?
Answer: 19.2 µM

Question: And the TGI (A498 renal)?
Answer: 34 µM

Question: And the GI50 (A549 NSCLC)?
Answer: 9.03 µM

Question: And the TGI (A549 NSCLC)?
Answer: 26.8 µM

Question: And the GI50 (ACHN renal)?
Answer: 8.51 µM

Question: And the TGI (ACHN renal)?
Answer: 20.7 µM

Question: And the GI50 (BT-549 breast)?
Answer: 12.4 µM

Question: And the TGI (BT-549 breast)?
Answer: 24.9 µM

Question: What about the GI50 (CAKI-1 renal) of the same molecule?
Answer: 3.87 µM

Question: And the TGI (CAKI-1 renal)?
Answer: 15.2 µM

Question: What about the GI50 (CCRF-CEM leukemia) of the same molecule?
Answer: 3.52 µM

Question: And the TGI (CCRF-CEM leukemia)?
Answer: 13.9 µM

Question: What about the GI50 (COLO 205 colon) of the same molecule?
Answer: 2.22 µM

Question: What about the TGI (COLO 205 colon) of the same molecule?
Answer: 4.99 µM

Question: And the GI50 (DU-145 prostate)?
Answer: 12 µM

Question: What about the TGI (DU-145 prostate) of the same molecule?
Answer: 25 µM

Question: And the GI50 (EKVX NSCLC)?
Answer: 13 µM

Question: What about the TGI (EKVX NSCLC) of the same molecule?
Answer: 26.3 µM

Question: And the GI50 (HCC-2998 colon)?
Answer: 3.34 µM

Question: What about the TGI (HCC-2998 colon) of the same molecule?
Answer: 12.5 µM

Question: What about the GI50 (HCT-116 colon) of the same molecule?
Answer: 2.21 µM

Question: And the TGI (HCT-116 colon)?
Answer: 5.64 µM

Question: What about the GI50 (HCT-15 colon) of the same molecule?
Answer: 2.31 µM

Question: What about the TGI (HCT-15 colon) of the same molecule?
Answer: 5.59 µM

Question: And the GI50 (HL-60(TB) leukemia)?
Answer: 1.99 µM

Question: And the TGI (HL-60(TB) leukemia)?
Answer: 4.04 µM

Question: And the GI50 (HOP-62 NSCLC)?
Answer: 15 µM

Question: What about the TGI (HOP-62 NSCLC) of the same molecule?
Answer: 29.2 µM

Question: What about the GI50 (HOP-92 NSCLC) of the same molecule?
Answer: 3.31 µM

Question: What about the TGI (HOP-92 NSCLC) of the same molecule?
Answer: 16.1 µM

Question: What about the GI50 (HS 578T breast) of the same molecule?
Answer: 14.1 µM

Question: What about the TGI (HS 578T breast) of the same molecule?
Answer: 46.8 µM

Question: What about the GI50 (HT29 colon) of the same molecule?
Answer: 3.31 µM

Question: What about the TGI (HT29 colon) of the same molecule?
Answer: 12.3 µM

Question: What about the GI50 (IGROV1 ovarian) of the same molecule?
Answer: 11 µM

Question: And the TGI (IGROV1 ovarian)?
Answer: 23.4 µM

Question: And the GI50 (K-562 leukemia)?
Answer: 2.27 µM

Question: What about the TGI (K-562 leukemia) of the same molecule?
Answer: 7.15 µM

Question: What about the GI50 (KM12 colon) of the same molecule?
Answer: 16.2 µM

Question: And the TGI (KM12 colon)?
Answer: 35.7 µM

Question: And the GI50 (LOX IMVI melanoma)?
Answer: 1.75 µM

Question: What about the TGI (LOX IMVI melanoma) of the same molecule?
Answer: 3.36 µM

Question: And the GI50 (M14 melanoma)?
Answer: 1.88 µM

Question: What about the TGI (M14 melanoma) of the same molecule?
Answer: 3.4 µM

Question: And the GI50 (MALME-3M melanoma)?
Answer: 1.8 µM

Question: What about the TGI (MALME-3M melanoma) of the same molecule?
Answer: 3.28 µM

Question: What about the GI50 (MCF7 breast) of the same molecule?
Answer: 4.04 µM

Question: And the TGI (MCF7 breast)?
Answer: 15.7 µM

Question: What about the GI50 (MDA-MB-231 breast) of the same molecule?
Answer: 3.87 µM

Question: What about the TGI (MDA-MB-231 breast) of the same molecule?
Answer: 14.8 µM

Question: What about the GI50 (MDA-MB-435) of the same molecule?
Answer: 3.34 µM

Question: What about the TGI (MDA-MB-435) of the same molecule?
Answer: 11.8 µM

Question: And the GI50 (MOLT-4 leukemia)?
Answer: 4.55 µM

Question: And the TGI (MOLT-4 leukemia)?
Answer: 24.1 µM

Question: And the GI50 (NCI-H226 lung)?
Answer: 14.2 µM

Question: What about the TGI (NCI-H226 lung) of the same molecule?
Answer: 28.3 µM
